Assay results published in US20110091574A1, “TREATMENT OF ADENOCARCINOMA EXPRESSING LKB1 WITH MTOR INHIBITOR IN COMBINATION WITH COX2 INHIBITOR” (Catholic Healthcare West, priority 2008, published 2011).

Tests used:
[1] = system: AMPK phosphorylation in H2009, H441, H23, H2122 NSCLC cell lines; experiment: Immunoblot of AMPK Thr172 phosphorylation after 2-DG; type: cell-based, human; conditions: 20 mM 2-DG, 1 hour; LKB1 positive H2009, H441 vs LKB1 negative H23, H2122
Method: (§1) FIG. 3 (in three panels, A, B and C) illustrates the effect of 2-deoxyglucose (2-DG) in LKB1 null and LKB1 expressing NSCLC cells. FIG. 3A is an immunoblot of LKB1 in H23, H2122, H2009 and H441 NSCLC cell lines. GAPDH was used as a loading control. FIG. 3B illustrates an immunoblot showing the induction of AMPK phosphorylation by 2-DG. LKB1 positive (H2009, H441) and LKB1 negative (H23, H2122) cell lines were treated with 20 mM of 2-DG for 1 hour. Protein lysates were immunoblotted with an antibody specific to phosphorylated Thr172 AMPK. It is noted that 2-DG induces phosphorylation at Thr172 only in LKB1 expressing cells. Both AMPK and GAPDH were used as loading controls. The blot is representative of two independent experiments. C-LKB1 null NSCLC cell are more sensitive to 2-DG. […] NSCLC cell lines were treated for 48 hours with indicated concentrations of 2-DG. Bars represent standard error.
To investigate the role of LKB1 in the effectiveness of 2-DG treatment, four NSCLC cell lines (H23, H2122, H441, H2009) were screened by immunoblot for LKB1 expression (FIG. 3A).
(§2) Cells were incubated on ice for 30 minutes with a lysis buffer containing 10 mM Tris-HCL, 150 mM NaCl and 1% IGEPAL (Sigma). […] Protein concentration was determined using the Bio-Rad DC protein kit. […]

[2] = system: H23 cells; experiment: Caspase 3/7 activity (Caspase-Glo 3/7); type: cell-based, human; conditions: H23 (LKB1 null); increasing doses of 2-DG, 24 hours
Method: (§3) FIG. 4 (in panels A through F) illustrates in graphs and immunoblots that 2-DG induces apoptosis in LKB1 null NSCLC cells. […] Bars represent standard error and the studies were repeated twice. FIG. 4B is an immunoblot of cleaved PARP. H23 and H2009 cells were treated for 24 hours with 20 mM of 2-DG. […] GAPDH was used as a loading control. FIG. 4C is an immunoblot of LKB1 and KDLKB1 in H23 cells after retroviral infection and puromycin selection. GAPDH was used as a loading control. FIG. 4D is an immunoblot that illustrates 2-DG activation of LKB1 in H23-LKB1, but not H23-KDLKB1 cells. The blot was stripped and probed for AMPK as a loading control. The blot represents two independent studies. FIG. 4E is a graph that illustrates that LKB1, but not KDLKB1 prevents activation of caspase 3 and 7 in H23 cells. H23-LKB1 and H23-KDLKB1 cells were treated for 24 hours with 20 mM 2-DG before analysis as described hereinafter. Bars represent standard error, and the study was repeated twice. FIG. 4F is an immunoblot of cleaved PARP in H23-LKB1 and H23-KDLKB1 after treatment with 20 mM of 2-DG for 24 hours. […]
(§4) Cell lines were plated at a density of 5000 cells per well in 96 well plates. […] Activity of caspases 3 and 7 were determined using a Caspase-Glo® 3/7 kit (Promega) according to manufacturer's instructions and scanned using a Beckman Coulter DTX 880 plate reader. […]

[3] = system: H23-LKB1 cells; experiment: Immunoblot of AMPK phosphorylation after 2-DG; type: cell-based, human; conditions: H23-LKB1 cells treated with 2-DG
Method: as §3, with “hours. Blot is representative of two independent studies. GAPDH was used as a loading control.” for “hours.”
as §2

[4] = system: H23-KDLKB1 cells; experiment: Immunoblot of AMPK phosphorylation after 2-DG; type: cell-based, human; conditions: H23-KDLKB1 cells treated with 2-DG
Method: as §3, with “hours. Blot is representative of two independent studies. GAPDH was used as a loading control.” for “hours.”
as §2

[5] = system: H23-LKB1 cells; experiment: Caspase 3/7 activity (Caspase-Glo 3/7); type: cell-based, human; conditions: H23 re-expressing LKB1; 20 mM 2-DG, 24 hours
Method: as §3, §4

[6] = system: LKB1 positive NSCLC cells (H2009, H441); experiment: Cell viability after 2-DG (CellTiter Blue); type: cell-based, human; conditions: 20 mM 2-DG, 48 hours
Method: as §1
(§5) Because LKB1-AMPK signaling can affect cell growth or cell number, the number of viable LKB1 null and LKB1 positive cells were compared after treatment with 2-DG for a range of concentrations, over time.
(§6) LKB1 negative (H23, H2122) and positive (H2009, H441) NSCLC cell lines were treated with decreasing doses of 2-deoxyglucose (2-DG) for 72 hours. Cell viability, markers of apoptosis (e.g. PARP, Caspases), and gene expression profiles were evaluated from treated versus untreated samples.
(§7) Cell lines were plated at a density of 2500 cells per well in 96 well plates. After attachment, 2-DG was diluted in media at indicated concentrations and added to wells. Treatment was carried out for 48 hours in standard cell culture conditions, before cell viability was assessed using the CellTiter® Blue kit (Promega) according to manufacturer's instructions and read on a Beckman Coulter DTX 880. The percentage of viable cells was determined by normalizing treated samples to vehicle (PBS).

[7] = system: LKB1 null NSCLC cells (H23, H2122); experiment: Cell viability after 2-DG (CellTiter Blue); type: cell-based, human; conditions: 48 hours
Method: as §1, §5, §6, §7

[8] = system: LKB1 positive lines (H2009); experiment: Microarray gene expression profiling of 2-DG-treated cells; type: cell-based, human
Method: (§8) To test this hypothesis, apoptosis-related transcripts of H23 (LKB1 null) and H2009 (LKB1 positive) cells were compared by treatment with either low (2.5 mM) or high dose (20 mM) 2-DG or vehicle (PBS) for 6 hours followed by microarray-based assessment of gene expression. […] LKB1 negative (H23, H2122) and positive (H2009, H441) NSCLC cell lines were treated with decreasing doses of 2-deoxyglucose (2-DG) for 72 hours. Cell viability, markers of apoptosis (e.g. PARP, Caspases), and gene expression profiles were evaluated from treated versus untreated samples. Total RNA was extracted from cells using TRIzol (Invitrogen) followed by RNeasy Mini Kit purification (Qiagen) according to manufacturers specifications. Spectrophotometric analysis was performed on a NanoDrop ND-1000 (Thermo Scientific) and RNA quality was assessed on a BioAnalyzer 2100 (Agilent) using strict RNA integrity QC cutoffs. 500 ng of RNA was labeled and hybridized (in duplicate) to Agilent 4×44K Whole Human Genome One-Color Oligo Microarrays according to manufacturer specifications. Slides were scanned using the Agilent Microarray Scanner (model […]) and processed with Agilent's Feature Extraction software (v. 9.5.1). Comparative and statistical analyses for gene expression profiles, were carried out using GeneSpring 7.3. Apoptosis-related genes of interest were identified by key word search (“apoptosis”) followed by unsupervised hierarchical clustering. Significance values were determined by comparing expression of all LKB1+ samples (grouped) to all LKB1- samples (grouped) for each gene using the Student's t-test and a p<0.05 cutoff after multiple testing correction using the false discovery rate (FDR) method.

[9] = system: LKB1 negative cell lines (H23); experiment: as above; type: cell-based, human
Method: as §8

[10] = system: mTOR in LKB1 null cells; experiment: mTOR activation in cells treated with 2-DG; type: cell-based; conditions: LKB1 null cells treated with 2-DG
[11] = system: H23-LKB1 cells; experiment: Immunoblot of cleaved PARP; type: cell-based, human; conditions: H23 re-expressing LKB1; 20 mM 2-DG, 24 hours
Method: as §3, with “hours. Blot is representative of two independent studies. GAPDH was used as a loading control.” for “hours.”
as §2

[12] = system: H23 cells; experiment: Immunoblot of cleaved PARP; type: cell-based, human; conditions: 20 mM 2-DG, 24 hours
Method: as §3, with “hours. Blot is representative of two independent studies. GAPDH was used as a loading control.” for “hours.”
as §2

[13] = system: COX-2 and COX-1 enzymes; conditions: cited from earlier work; for inhibition of COX-2 relative to COX-1: in vitro
[14] = human, single oral dose of 200 mg; cited from earlier work
[15] = cited from earlier work

Q: For `O=CC[C@@H](O)[C@H](O)[C@H](O)CO` [2-DG, 2-deoxyglucose], which “activation of AMPK (phosphorylation at Thr172)” value [1] is on record?
A: induced LKB1 dependent activation of AMPK

Q: And the “activation of caspases 3 and 7” value [2]?
A: dose dependent activation of caspases 3 and 7

Q: What about the “phosphorylation of AMPK” value [3] of the same molecule?
A: capable of phosphorylating AMPK

Q: What about the “phosphorylation of AMPK” value [4] of the same molecule?
A: does not

Q: What about the “2-DG induced activation of caspase 3 and 7” value [5] of the same molecule?
A: prevented 2-DG induced activation of caspase 3 and 7

Q: And the cell viability [6]?
A: significant decrease in cell viability

Q: What about the cell viability ([7]; LKB1 negative cells, 20 mM 2-DG) of the same molecule?
A: significant decrease in cell viability

Q: What about the “cell viability compared to LKB1 positive cells” value ([7]; LKB1 null cells, all doses, lowest 2.5 mM, p=5.73×10^−13) of the same molecule?
A: significant decrease in cell viability for all doses tested

Q: And the “expression of pro-apoptotic markers” value [8]?
A: no changes in expression

Q: What about the “expression of BCL-2 and BCL-2 interacting proteins” value ([9]; H23 (LKB1 null), 2.5 mM or 20 mM 2-DG, 6 hours, microarray) of the same molecule?
A: dose dependent changes

Q: What about the “expression of pro-apoptotic markers” value ([9]; LKB1 negative cell lines, 2-DG-treated) of the same molecule?
A: increase in the expression of pro-apoptotic markers

Q: What about the mTOR activation [10] of the same molecule?
A: increased mTOR activation

Q: And the “cleavage of PARP” value [11]?
A: prevented cleavage of PARP

Q: What about the “cleaved PARP (marker of apoptosis)” value [12] of the same molecule?
A: present

Q: For `CC(=O)Oc1ccccc1C(=O)O` [aspirin], which “inhibition of COX-2 relative to COX-1” value [13] is on record?
A: about equipotent

Q: For `Cc1ccc(-c2cc(C(F)(F)F)nn2-c2ccc(S(N)(=O)=O)cc2)cc1` [celecoxib], which Cmax [14] is on record?
A: 709 ng/mL

Q: What about the cardiovascular side effects ([15]; long-term use at 400 mg once daily, or 200 mg or 400 mg twice daily) of the same molecule?
A: severe cardiovascular side effects

Q: With `Cc1ccc(-c2ncc(Cl)cc2-c2ccc(S(C)(=O)=O)cc2)cn1` [etoricoxib] as the molecule, how does the “relative degree of selectivity for COX-2 over COX-1 (rank order)” value [13] read?
A: lumiracoxib=etoricoxib>valdecoxib=rofecoxib>>celecoxib

Q: Which “inhibition of COX-2 relative to COX-1” value [13] does the source give for `CC(C)Cc1ccc(C(C)C(=O)O)cc1` (stereo not shown) [ibuprofen] here?
A: sevenfold

Q: Which “relative degree of selectivity for COX-2 over COX-1 (rank order)” value [13] does the source give for `Cc1ccc(Nc2c(F)cccc2Cl)c(CC(=O)O)c1` [lumiracoxib] here?
A: lumiracoxib=etoricoxib>valdecoxib=rofecoxib>>celecoxib

Q: For `CS(=O)(=O)c1ccc(C2=C(c3ccccc3)C(=O)OC2)cc1` [rofecoxib], which “potency at inhibiting COX-2 relative to COX-1” value [13] is on record?
A: about 300 times

Q: And the “increased risk of cardiovascular toxicities” value ([15]; trial to prevent adenomas)?
A: two-fold
